According to US9096543B2, “Nuclear transport modulators and uses thereof” (Karyopharm Therapeutics Inc., priority 2012, dated 2015):
Entries after “also recorded” stand apart in the source; their conditions may differ.

Assays:
[1] = system: IMQ-induced psoriasis; assay: Imiquimod (IMQ)-induced dermal inflammation/psoriasis model (Study 1); type: in vivo, BALB/c mice; details: Compound 2 1 μM
Description: Forty (40) male BALB/c mice aged 6 to 8 weeks were used with a pretreatment body weight of 22 to 30 g. The BALB/c mice were randomized into four (4) groups of 10 mice per group. A small area (about 2×2 cm^2) of skin on the dorsum of all the animals was neatly shaved. Group-I animals served as Naïve animals. Psoriasis was induced in Groups II to IV [Group II (IMQ; vehicle), Group III (IMQ; […] Animals were observed daily for a period of 13 days for any treatment-related symptoms. The daily observations included body weight, feed intake, skin thickening, scaling, folding, erythema, nasal discharge, movement, respiration, hair, distended abdomen, skin condition, fur, mucous membrane, presence or absence of secretions, eye condition, tail elevation, motor activity, posture and gait. Severity of damage to the dorsal portion of the skin was assessed by assigning erythema, scaling, folding and skin thickening scores based on external observations of skin, according to rubric in Table 9. […] Compound 2 was prepared by dissolving 1.47 mg of Compound 2 in 300 μL of 100% DMSO.

[2] = system: inflammation-related CRM1 cargo proteins: IκB, Nrf2, HMGB1, FoxP3, FOXO1a, RxRα, PPARγ and NFκB (p65 subunit); assay: Immunofluorescence of nuclear localization of inflammation-related CRM1 cargos in HeLa and THP-1 cells; type: cell-based, human; details: 1-10 μM Compound 1 with 20 ng/mL TNFα, 4-24 h
Experimental: HeLa and THP-1 (human acute monocytic leukemia) cells were treated with inflammation inducing factor, TNFα, alone or in combination with 1-10 μM of Compound 1 for 4-24 h, and then were analyzed by immunofluorescence (IF) for the nuclear localization of inflammation-related CRM1 cargo proteins: IκB, Nrf2, HMGB1, FoxP3, FOXO1a, RxRα, PPARγ and NFκB (p65 subunit).
For the detection of IkB, Nrf2, RxRα and PPARγ localization, cells were pre-incubated with 10 μM Compound 1 for 30 minutes, followed by incubation with 20 ng/mL TNFα for 4 hrs in serum free media. For detection of HMGB1, FoxP3 and Foxo1A, cells were pre-incubated with 1 μM of Compound 1 for 2 h, followed by incubation with 20 ng/mL TNFα for 24 hours. […] IκB was detected by the primary rabbit monoclonal (E130) antibody from Abcam (ab32518); Nrf2 was detected by the primary rabbit polyclonal antibody from Santa Cruz (sc722); RxR alpha was detected by the primary rabbit polyclonal antibody from Santa Cruz (sc553); PPAR gamma was detected by the primary rabbit monoclonal […] antibody from Cell Signaling (#2443); Foxo1A was detected by the primary rabbit monoclonal [C29H4] antibody from Cell Signaling (#2880); HMGB1 was detected by the primary rabbit polyclonal antibody from Abcam (ab18256); FoxP3 was detected by the primary rabbit polyclonal antibody from Abeam (ab10563). […]

[3] = system: MOG-induced EAE; assay: MOG-induced experimental autoimmune encephalomyelitis (EAE) murine model; type: in vivo, C57B1/6J mice; details: Compound 1 7.5 mg/kg p.o. from day 11, Monday, Wednesday and Friday, 3 weeks
Experimental: The EAE Model is an accepted model for the study of human CNS demyelinating diseases such as multiple sclerosis. The effects of Compound 1 were investigated in MOG-induced in an EAE murine model in female C57B1/6J mice. […] Compound 1 at 7.5 mg/kg was administered orally starting from day 11 (disease onset) on Monday, Wednesday and Friday for 3 consecutive weeks. The disease was induced by the single intradermal injection of MOG emulsified in Complete Freund's Adjuvant (CFA) on study day 0, followed by intraperitoneal supplemental immunostimulation with pertussis toxin (PT) carried out on study day 0, and again 48 hours later on study day 2.

[4] = system: Nrf2 pathway; assay: Nrf2 pathway induction in THP-1 cells with or without KEAP1 knockdown (quantitative PCR); type: cell-based, human
Description: THP-1 (human acute monocytic leukemia cells) cells were used to evaluate the effects of Compound 1 on the Nrf2 pathway in an inflammation environment. Nuclear factor (erythroid-derived 2)-like 2 (Nrf2) is an anti-inflammatory transcription factor. Under normal conditions, Nrf2 is kept in the cytoplasm by Kelch like-ECH associated protein 1 (KEAP1), which degrades Nrf2 by ubiquitination. Nrf2 can also move into the nucleus and back into the cytoplasm as a CRM1 cargo. In the current study, Nrf2 was protected from degradation by knocking down KEAP1 with siRNA. Then, KEAP1-depleted cells were treated with TNFα to induce inflammation, and the ability of Compound 1 to reverse inflammation by up-regulation of the Nrf2 pathway was tested.
THP-1 (acute monocytic leukemia) cells were plated in two 10 cm culture dishes (6*10^6 cells/dish) with RPMI-1640 medium (Lonza) supplemented with 10% heat-inactivated fetal bovine serum (Invitrogen) and 2-mercaptoethanol to a final concentration of 0.05 mM. Cells in one dish were transfected with 50 nM of KEAP1 siRNA (Life Technologies, Silencer Select, siRNA ID# s18982) using Lipofectamine RNAiMax (Invitrogen), whereas the cells in the other dish were transfected with 50 nM of control siRNA, Block-iT (Invitrogen). Transfected cells were left for 72 h and the KEAP1 knockdown efficiency was calculated with quantitative PCR using a probe against KEAP1.
Next, the cells from each of the dishes were divided equally into 4 wells in different 6-well plates. One of the wells from each of the plates was pre-treated with 1 μM of Compound 1 for 1 h, followed by 20 ng/mL TNFα for 24 h. The other wells were treated with either 1 μM Compound 1 or 20 ng/mL TNFα or neither for 24 h. Following the treatment, RNA was extracted from the cells using an RNA extraction kit (Qiagen). RNA samples from each treatment group were reverse transcribed and real-time PCR was performed on the corresponding cDNA sequences using probes against Nrf2 and two of its downstream genes, NQO1 and EPHX1. THP-1 cells were transfected with KEAP1 siRNA. 40% knockdown efficiency was achieved. […]

Structure (SMILES)	body weight, food and water intake [1]	IMQ-induced disease manifestation / disease activity index ([1]; daily Day 1 to Day 13)	nuclear localization of inflammation-related CRM1 cargo proteins [2]	disease score and severity [3]	EPHX1 expression ([4]; 1 μM Compound 1, presence or absence of TNFα)	Nrf2 expression ([4]; 1 μM Compound 1 alone, with or without KEAP1 knockdown)	Nrf2 signaling ([4]; 1 μM Compound 1 for 24 hrs with 20 ng/mL TNFα)
O=C(/C=C\n1cnc(-c2cc(C(F)(F)F)cc(C(F)(F)F)c2)n1)NNC(=O)CN1CCOCC1 [Compound 2, (Z)-3-(3-(3,5-bis(trifluoromethyl)phenyl)-1H-1,2,4-triazol-1-yl)-N′-(2-morpholinoacetyl)acrylohydrazide]	without adversely affecting body weight, food and water intake	diminished IMQ-induced disease manifestation; also recorded: reduction in disease activity index in comparison to the vehicle treated group					
CC(C)(C)C(=O)NNC(=O)/C=C\n1cnc(-c2cc(C(F)(F)F)cc(C(F)(F)F)c2)n1 [Compound 1, (Z)-3-(3-(3,5-bis(trifluoromethyl)phenyl)-1H-1,2,4-triazol-1-yl)-N′-pivaloylacrylohydrazide]			demonstrate nuclear localization of the above cargos	significantly decreased disease score and severity; also recorded: decrease in disease score and severity	up-regulated the expression of EPHX1 in the presence or absence of TNFα	did not have any significant effect on Nrf2 expression	up-regulated Nrf2 signaling
